Experimental data reported in patent publication US20190336537A1, “GENERATING ATRIAL AND VENTRICULAR CARDIOMYOCYTE LINEAGES FROM HUMAN PLURIPOTENT STEM CELLS” (UNIVERSITY HEALTH NETWORK, priority 2016, published 2019).

Legend:
[1] = system: HES3 NKX2-5:GFP reporter hESC line derived cardiomyocytes; test: qRT-PCR analysis of atrial and ventricular gene expression in day 20 hPSC-derived cardiomyocytes; type: cell-based, human
Experimental: To determine if retinoic acid signaling can specify an atrial fate in hPSC-derived cardiogenic populations generated with our embryoid-body (EB)-based protocol, all trans retinoic acid (RA) was added to the differentiation cultures at 4 different time points that represent the following developmental stages: mesoderm induction (day 3), cardiovascular specification (day 5), cardiac progenitor development (day 7) and emergence of contracting cardiomyocytes (day 9) (Kattman et al., 2011) (FIG. 1A). The HES3 NKX2-5: GFP reporter hESC line was used for these experiments to allow us to monitor and quantify cardiovascular development and to isolate GFP+ cardiomyocytes. At day 20 of culture, GFP+SIRPA+CD90− cardiomyocytes were isolated from the differentiated populations and analyzed by RTqPCR for expression of genes indicative of atrial and ventricular development. (FIGS. 1B-D and 8B-E).
(§1) For cardiac differentiation, we used a modified version of our embryoid body (EB)-based protocol (Kattman et al., 2011). hPSC populations at 80%-90% confluence were dissociated into single cells (TrypLE, ThermoFisher) and re-aggregated to form EBs in StemPro-34 media (ThermoFisher) containing penicillin/streptomycin (1%, ThermoFisher), L-glutamine (2 mM, ThermoFisher), trans-ferrin (150 μg/ml, ROCHE), ascorbic acid (50 μg/ml, Sigma), and monothioglycerol (50 μg/ml, Sigma), ROCK inhibitor Y-27632 (10 μM, TOCRIS) and rhBMP4 (1 ng/ml, R&D) for 18 h on an orbital shaker. At day 1, the EBs were transferred to mesoderm induction media consisting of StemPro-34 with above supplements (-ROCK inhibitor Y-27632) and rhBMP4, rhActivinA (R&D) and rhbFGF (5 ng/ml, R&D) at the indicated concentrations. At day 3, the EBs were harvested, washed with IMDM and transferred to cardiac mesoderm specification media consisting of StemPro-34, the Wnt inhibitor IWP2 (1 μM, TOCRIS) and rhVEGF (10 ng/mL, R&D). At day 5, the EBs were transferred to Stem Pro-34 with rhVEGF (5 ng/ml) for another 7 days and then to Stem Pro-34 media without additional cytokines for further 8 days. At day 20, HES3-NKX2-5gfp/w-derived cardiomyocytes were analyzed and isolated based on the expression of NKX2-5:GFP and SIRPa and a lack of CD90. Cardiomyocytes generated from non-transgenic hPSC lines were analyzed and isolated as SIRPa+CD90− populations. Media was changed every 3 days. Cultures were incubated in a low oxygen environment (5% CO2, 5% O2, 90% N2) for first 12 days and a normoxic environment (5% CO2) for the following 8 days in total of 20 days. The EBs were cultured in ultra-low attachment 6-well dishes (Corning) throughout the differentiation for maintaining suspension cultures.
Total RNA from hPSC-derived populations was isolated using RNAqueous-micro Kit including RNase-free DNase treatment (Ambion). RNA from dissected ventricular and atrial tissue of human fetal hearts was isolated using the TRIzol method (ThermoFisher) and treated with DNase (Ambion). Between 100 ng and […] of isolated RNA was reverse transcribed into cDNA using oligo (dT) primers and random hexamers and Superscript III Reverse Transcriptase (ThermoFisher). QRT-PCR was performed on an EP Real-Plex MasterCycler (Eppendorf) using QuantiFast SYBR Green PCR kit (QIAGEN). All experiments were prepared in duplicates and included a 10-fold dilution series of sonicated human genomic DNA standards ranging from 25 ng/ml to 2.5 μg/ml for evaluating the efficiency of PCR reaction and the copy number of each gene relative to the house keeping gene TBP. […]

[2] = system: HES3 NKX2-5:GFP hESC-derived day 20 EB populations; test: Flow cytometric and immunostaining analyses of day 20 EB populations (CTNT, MLC2V, NKX2-5, COUPTFII); type: cell-based, human; design: frequency of NKX2-5+SIRPa+ cells in day 20 populations: dose or concentration left out as unconfirmed
Experimental: as §1
Day 2-6 EBs were dissociated with TrypLE for 2-4 min at room temperature (RT). Day 20 EBs were dissociated by incubation in Collagenase type 2 (0.5 mg/ml, Worthington) in HANKs buffer overnight at RT followed by TrypLE treatment as described above. The following antibodies were used for staining: anti-PDGFRa-PE (R&D Systems, 3:50), anti-CD235a-APC (BD PharMingen, 1:100), antiSIRPa-PeCy7 (Biolegend, 1:1000), anti-CD90-APC (BD PharMingen, 1:1000), anticardiac isoform of CTNT (ThermoFisher Scientific, 1:2000), or anti-myosin light chain 2 (Abcam, 1:1000). For unconjugated primary antibodies, the following secondary antibodies were used for detection: goat anti-mouse IgG-APC (BD Pharmigen, 1:250), or donkey anti-rabbit IgG-PE (Jackson ImmunoResearch, 1:250). Detailed antibody information is described in Table 2.
For cell-surface marker analyses, cells were stained for 30 min at 4 degrees C. in FACS buffer consisting of PBS with 5% fetal calf serum (FCS) (Wisent) and 0.02% sodium azide. For intracellular staining, cells were fixed for 15 min at 4 degrees C. with 4% PFA in PBS followed by permeabilization using 90% methanol for 20 min at 4 degrees C. Cells were washed with PBS containing 0.5% BSA (Sigma) and stained with unconjugated primary antibodies in FACS buffer overnight at 4 degrees C. Stained cells were washed with PBS with 0.5% BSA and stained with secondary antibodies in FACS buffer for 1 h at 4 degrees C.
Stained cells were analyzed using the LSR II Flow cytometer (BD). For cell sorting, stained cells were kept in IMDM with 0.5% FCS and sorted using Influx (BD), FACSAriall (BD), MoFlo-XDP (BD) and FACSAria Fusion (BD) at the Sickids/UHN flow cytometry facility. Data were analyzed using FlowJo software (Tree Star).
Day 20 EBs were dissociated as described above and the cells plated onto 12 mm cover glasses (VWR) pre-coated with matrigel (25% v/v, BD). Cells were cultured for 3-5 days to enable the formation of adherent cell monolayers. Cells were fixed with
4% PFA in PBS for 10 min at room temperature and permeabilized with PBS containing 0.3% TritonX, 200 mM Glycine (Sigma) for 20 min at RT. Cells were blocked with PBS containing 10% FCS, 0.1% TritonX, and 2% BSA. […]

[3] = RA added at days 3 and 5, day 20
[4] = day 3 RA-treated mesoderm versus non-treated
[5] = day 3 RA-treated mesoderm versus non-treated control

CC1=C(/C=C/C(C)=C/C=C/C(C)=C/C(=O)O)C(C)(C)CCC1 [RA, all trans retinoic acid]
expression of atrial ion channel gene KCNJ3 [1, 3]: upregulation | expression of ventricular-specific gene MYL2 [1, 3]: significant reduction | expression of pan-cardiomyocyte marker CTNT ([1]; RA added at different time points, 10B/6A induced, day 20): None of the RA treatments significantly altered | expression of atrial markers NR2F2, TBX5, NPPA, MYL7, CACNA1D, KCNA5, GJA5 [1, 4]: reverse pattern | expression of ventricular markers IRX4 and MYH7 [1, 4]: lower levels | frequency of NKX2-5+SIRPa+ cells in day 20 populations ([2]; RA): dramatic reduction | proportion of NKX2-5-GFP− cells ([2]; RA treatment days 3-5, day 20): did not influence | frequency of COUPTFII+ cells [2, 5]: much higher frequency | proportion of MLC2V+ cells [2, 5]: dramatic reduction
